Reference: US7183075B2, “Purified and isolated potassium-chloride cotransporter nucleic acids and polypeptides and therapeutic and screening methods using same” (Vanderbilt University, priority 2000, dated 2007)
Like-named read-outs stand apart in the source and are kept apart here.

Target: T1, hKCC3a (Homo sapiens, UniProt Q9UHW9, L346X/L35X/L789X)
T1 construct: A full-length hKCC3a construct has also been generated for functional expression; expressed in transfected cells; host or cells: Xenopus laevis oocytes injected with cRNA
T1 sequence (Q9UHW9 1-1150 L35X/L346X/L789X): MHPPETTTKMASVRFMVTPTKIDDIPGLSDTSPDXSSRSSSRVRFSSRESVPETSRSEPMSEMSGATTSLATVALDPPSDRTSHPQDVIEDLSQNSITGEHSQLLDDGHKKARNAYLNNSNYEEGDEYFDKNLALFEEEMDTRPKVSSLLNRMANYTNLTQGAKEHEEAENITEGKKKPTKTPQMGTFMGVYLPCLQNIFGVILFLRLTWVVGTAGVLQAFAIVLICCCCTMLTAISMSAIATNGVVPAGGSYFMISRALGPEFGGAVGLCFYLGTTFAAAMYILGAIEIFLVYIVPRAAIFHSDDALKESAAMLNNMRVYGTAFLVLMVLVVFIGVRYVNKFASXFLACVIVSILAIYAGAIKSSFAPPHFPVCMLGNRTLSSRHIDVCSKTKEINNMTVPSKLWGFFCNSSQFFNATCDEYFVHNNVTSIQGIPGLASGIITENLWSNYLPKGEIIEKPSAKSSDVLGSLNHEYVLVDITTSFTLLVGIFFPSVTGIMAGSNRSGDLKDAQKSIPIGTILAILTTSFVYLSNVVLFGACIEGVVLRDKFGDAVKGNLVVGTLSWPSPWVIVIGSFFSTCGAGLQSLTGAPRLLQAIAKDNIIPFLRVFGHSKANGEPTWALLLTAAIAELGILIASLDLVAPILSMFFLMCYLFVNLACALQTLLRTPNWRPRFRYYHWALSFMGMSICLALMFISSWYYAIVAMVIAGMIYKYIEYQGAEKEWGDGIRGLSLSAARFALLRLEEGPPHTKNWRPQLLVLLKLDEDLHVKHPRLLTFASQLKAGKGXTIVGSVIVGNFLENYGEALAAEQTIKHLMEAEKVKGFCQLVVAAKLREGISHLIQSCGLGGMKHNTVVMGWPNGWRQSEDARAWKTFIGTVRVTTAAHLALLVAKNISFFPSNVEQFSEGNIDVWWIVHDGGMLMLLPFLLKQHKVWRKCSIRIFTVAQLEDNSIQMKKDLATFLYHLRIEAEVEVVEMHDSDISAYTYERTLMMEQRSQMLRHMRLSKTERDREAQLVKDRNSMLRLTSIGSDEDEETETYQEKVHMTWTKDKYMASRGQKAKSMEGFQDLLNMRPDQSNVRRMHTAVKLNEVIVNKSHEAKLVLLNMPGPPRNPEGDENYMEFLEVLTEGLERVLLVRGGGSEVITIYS
Assay: 86Rb+ uptake (K+-Cl- cotransport) in Xenopus oocytes injected with hKCC3a cRNA
Assay type: cell-based
Settings: for Km: KCC3

Cl [Chloride]
Km (read-out: Chloride Km): 14.2 mM

[K+] [Potassium]
Km (read-out: Potassium Km): 51.9 mM

HgCl2 [Hg—Cl2]
response of KCC3a to mercury (50 μM HgCl2, hypotonic): resistant
